Test results: patent publication US11976083B2, “Inhibitors of peptidylarginine deiminases” (Gilead Sciences, Inc., priority 2020, dated 2024)

Target: T1, human PAD4 (Homo sapiens, UniProt Q9UM07)
T1 construct: human PAD4 (NM_012387), A2-P663, was PCR amplified; His-SUMO (N, cleaved yes); made in house; host or cells: E. coli BL21(DE3)
Experiment: In vitro PAD4 BAEE biochemical assay
Conditions: BAEE substrate 3 mM, 5 nM PAD4, 2 mM calcium chloride; geometric mean of multiple experiments
Summary of the method: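 Ammonia produced by BAEE deimination (3 mM substrate, 2 h, 25 °C) was read as fluorescent isoindole after o-phthalaldehyde/DTT derivatization, ex 405 nm/em 535 nm. Human PAD4 at 5 nM final, 2 mM calcium, pH 7.6 MOPS; compound preincubated 30 min. IC50s, normalized to BB-Cl-Amidine and DMSO controls, were geometric-mean averaged.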

T1 sequence (Q9UM07 2-663): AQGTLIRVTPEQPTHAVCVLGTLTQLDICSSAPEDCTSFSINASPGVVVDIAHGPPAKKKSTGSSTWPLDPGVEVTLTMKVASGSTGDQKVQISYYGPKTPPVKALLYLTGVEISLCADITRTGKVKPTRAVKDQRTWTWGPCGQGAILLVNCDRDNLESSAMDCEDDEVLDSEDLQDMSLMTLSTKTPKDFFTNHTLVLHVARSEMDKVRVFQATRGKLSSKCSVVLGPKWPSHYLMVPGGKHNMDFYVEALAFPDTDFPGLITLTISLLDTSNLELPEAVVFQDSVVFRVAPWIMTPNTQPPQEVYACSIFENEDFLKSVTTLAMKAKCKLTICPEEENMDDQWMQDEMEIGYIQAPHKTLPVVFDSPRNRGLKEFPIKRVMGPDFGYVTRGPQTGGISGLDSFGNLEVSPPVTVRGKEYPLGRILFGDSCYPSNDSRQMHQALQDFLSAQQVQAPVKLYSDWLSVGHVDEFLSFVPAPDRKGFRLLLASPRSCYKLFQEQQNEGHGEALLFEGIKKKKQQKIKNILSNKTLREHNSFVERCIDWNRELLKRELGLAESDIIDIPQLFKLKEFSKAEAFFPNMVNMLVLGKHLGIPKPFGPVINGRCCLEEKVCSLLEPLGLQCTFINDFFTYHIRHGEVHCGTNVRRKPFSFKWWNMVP

IC50 | SMILES
683 nM | COc1cc(C(=O)N[C@H]2CNCC[C@@H]2F)cc2nc(-c3cc4ccc5nc4n3Cc3ccccc3CCCCC(=O)N[C@@H]5C)n(C)c12 [Example 590, ~{N}-[(3~{S},4~{S})-4-fluoro-3-piperidyl]-7-methoxy-1-methyl-2-[(15~{R})-15-methyl-13-oxo-1,14,23-triazatetracyclo[14.5.2.0^ {3,8}.0^{19,22}]tricosa-3(8),4,6,16,18,20,22-heptaen-21-yl] benzimidazole-5-carboxamide]
81 nM | C[C@H]1NC(=O)C(C)(C)CCCCCCn2c(-c3nc4cc(C(=O)N[C@H]5CNCC[C@@H]5F)c(F)cc4n3C)cc3ccc1nc32 [Example 591, 6-fluoro-~{N}-[(3~{S},4~ {S})-4-fluoro-3-piperidyl]-1-methyl-2-[(11~ {R})-8,8,11-trimethyl-9-oxo-1,10,19-triazatricyclo [10.5.2.0^{15,18}]nonadeca-12,14,16,18-tetraen-17-yl]benzimidazole-5-carboxamide]
175 nM | COc1cc2c(cc1C(=O)N[C@H]1CNCC[C@@H]1F)nc(-c1cc3ccc4nc3n1CCCCCCC(C)(C)C(=O)N[C@@H]4C)n2C [Example 592, ~{N}-[(3~{S},4~{S})-4-fluoro-3-piperidyl]-6-methoxy-1-methyl-2-[(11~{R})-8,8,11-trimethyl-9-oxo-1,10,19-triazatricyclo[10.5.2.0^ {15,18}]nonadeca-12,14,16,18-tetraen-17-yl]benzimidazole-5-carboxamide]
44 nM | C[C@H]1NC(=O)c2ccccc2CCCCCn2c(-c3nc4cc(C(=O)N[C@H]5CNCC[C@@H]5F)c(F)cc4n3C)cc3ccc1nc32 [Example 593, 6-fluoro-~{N}-[(3~{S},4~ {S})-4-fluoro-3-piperidyl]-1-methyl-2-[(2~{R})-2-methyl-4-oxo-3,16,22-triazatetracyclo[14.5.2.0^ {5,10}.0^{19,23}]tricosa-1(21),5(10),6,8,17, 19,22-heptaen-17-yl] benzimidazole-5-carboxamide]
112 nM | COc1cc(C(=O)N[C@H]2CNCC[C@@H]2F)cc2nc(-c3cc4ccc5nc4n3CC(F)(F)CCCCC(C)(C)C(=O)N[C@@H]5C)n(C)c12 [Example 594, 2-[(11~{R})-3,3-difluoro-8,8,11-trimethyl-9-oxo-1,10,19-triazatricyclo [10.5.2.0^{15,18}]nonadeca-12,14,16,18-tetraen-17-yl]-~ {N}-[(3~{S},4~{S})-4-fluoro-3-piperidyl]-7-methoxy-1-methyl-benzimidazole-5-carboxamide]
37 nM | C[C@H]1NC(=O)[C@@H]2C[C@H]2CCCC(F)(F)Cn2c(-c3nc4cc(C(=O)N[C@H]5CNCC[C@@H]5F)c(F)cc4n3C)cc3ccc1nc32 [Example 595, 2-[(2~{R},5~{R},7~ {R})-11,11-difluoro-2-methyl-4-oxo-3,13,19-triazatetracyclo[11.5.2.0^ {5,7}.0^{16,20}]icosa-1(19),14,16(20),17-tetraen-14-yl]-6-fluoro-~ {N}-[(3~{S},4~{S})-4-fluoro-3-piperidyl]-1-methyl-benzimidazole-5-carboxamide]
3580 nM | C[C@H]1NC(=O)C(C)(C)CCCCCCn2c(-c3nc4cc(C(=O)N[C@H]5CNCC[C@@H]5F)c(C#N)cc4n3C)cc3ccc1nc32 [Example 596, 6-cyano-~{N}-[(3~{S},4~ {S})-4-fluoro-3-piperidyl]-1-methyl-2-[(11~{R})-8,8,11-trimethyl-9-oxo-1,10,19-triazatricyclo[10.5.2.0^ {15,18}]nonadeca-12,14,16,18-tetraen-17-yl] benzimidazole-5-carboxamide]
42 nM | C[C@H]1NC(=O)c2ccccc2CCCC(F)(F)Cn2c(-c3nc4cc(C(=O)N[C@H]5CNCC[C@@H]5F)c(F)cc4n3C)cc3ccc1nc32 [Example 597, 2-[(2~{R})-14,14-difluoro-2-methyl-4-oxo-3,16,22-triazatetracyclo[14.5.2.0^ {5,10}.0^{19,23}]tricosa-1(21),5(10),6,8,17,19,22-heptaen-17-yl]-6-fluoro-~ {N}-[(3~{S},4~{S})-4-fluoro-3-piperidyl]-1-methyl-benzimidazole-5-carboxamide]
42 nM | COc1cc(C(=O)N2[C@H]3CC[C@@H]2[C@H](N)C3)cc2nc(-c3cc4ccc5nc4n3CCCCCc3nccnc3C(=O)N[C@@H]5C)n(C)c12 [Example 598, (2~{R})-17-[5-[(1~{R}, 2~{R},4~{S})-2-amino-7-azabicyclo[2.2.1]heptane-7-carbonyl]-7-methoxy-1-methyl-benzimidazol-2-yl]-2-methyl-3,6,9,16,22-pentazatetracyclo[14.5.2.0^ {5,10}.0^{19,23}] tricosa-1(21),5(10),6,8,17, 19,22-heptaen-4-one]
67 nM | C[C@H]1NC(=O)[C@@H]2C[C@H]2CCCCCn2c(-c3nc4cc(C(=O)N[C@H]5CNCC[C@@H]5F)c(F)cc4n3CCOC(F)(F)F)cc3ccc1nc32 [Example 599, 6-fluoro-~{N}-[(3~{S},4~{S})-4-fluoro-3-piperidyl]-2-[(2~{R}, 5~{R},7~{R})-2-methyl-4-oxo-3,13,19-triazatetracyclo[11.5.2.0^ {5,7}.0^{16,20}]icosa-1(19),14,16(20),17-tetraen-14-yl]-1-[2-(trifluoromethoxy)ethyl]benzimidazole-5-carboxamide]
46 nM | C[C@H]1NC(=O)[C@@H]2C[C@H]2CCCCCn2c(-c3nc4cc(C(=O)N[C@H]5CNCC[C@@H]5F)c(F)cc4n3CCOC3CC3)cc3ccc1nc32 [Example 600, 1-[2-(cyclopropoxy)ethyl]-6-fluoro-~{N}-[(3~{S},4~ {S})-4-fluoro-3-piperidyl]-2-[(2~{R},5~{R},7~{R})-2-methyl-4-oxo-3,13,19-triazatetracyclo[11.5.2.0^ {5,7}.0^{16,20}]icosa-1(19),14,16(20),17-tetraen-14-yl]benzimidazole-5-carboxamide]
45 nM | C[C@H]1NC(=O)[C@@H]2C[C@H]2CCCCCn2c(-c3nc4cc(C(=O)N[C@H]5CNCC[C@@H]5F)c(F)cc4n3CCO)cc3ccc1nc32 [Example 601, 6-fluoro-~{N}-[(3~{S},4~ {S})-4-fluoro-3-piperidyl]-1-(2-hydroxyethyl)-2-[(2~{R},5~{R},7~{R})-2-methyl-4-oxo-3,13,19-triazatetracyclo[11.5.2.0^ {5,7}.0^{16,20}]icosa-1(19),14,16(20),17-tetraen-14-yl]benzimidazole-5-carboxamide]
97 nM | C[C@H]1NC(=O)C(C)(C)CCCCCCn2c(-c3nc4cc(C(=O)N[C@H]5CNCC[C@@H]5F)c(F)cc4n3C3C[C@@H]3F)cc3ccc1nc32 (stereo partly drawn) [Example 602, (1~{R})-6-fluoro-1-[(2~{S})-2-fluorocyclopropyl]-~{N}-[(3~{S},4~{S})-4-fluoro-3-piperidyl]-2-[(11~{R})-8,8,11-trimethyl-9-oxo-1,10,19-triazatricyclo [10.5.2.0^{15,18}]nonadeca-12,14,16,18-tetraen-17-yl]benzimidazole-5-carboxamide]
44 nM | C[C@H]1NC(=O)C2(CCCCCCn3c(-c4nc5cc(C(=O)N[C@H]6CNCC[C@@H]6F)c(F)cc5n4C4CC4)cc4ccc1nc43)COC2 [Example 603, 1-cyclopropyl-6-fluoro-~ {N}-[(3~{S},4~{S})-4-fluoro-3-piperidyl]-2-[(11~{R})-11-methyl-9-oxo-spiro[1,10,19-triazatricyclo [10.5.2.0^{15,18}]nonadeca-12,14,16,18-tetraene-8,3′-oxetane]-17-yl] benzimidazole-5-carboxamide]
86 nM | COc1cc(C(=O)N2C[C@H]3CC[C@@H]2[C@@H]3N)cc2nc(-c3cc4ccc5nc4n3CCCCCc3nccnc3C(=O)N[C@@H]5C)n(C)c12 [Example 604, (2~{R})-17-[5-[(1~{R},4~ {R},7~{R})-7-amino-2-azabicyclo[2.2.1]heptane-2-carbonyl]-7-methoxy-1-methyl-benzimidazol-2-yl]-2-methyl-3,6,9,16,22-pentazatetracyclo[14.5.2.0^ {5,10}.0^{19,23}]tricosa-1(21),5(10),6,8,17,19,22-heptaen-4-one]
129 nM | COc1cc(C(=O)N2CC[C@@H](OC)[C@@H](N)C2)cc2nc(-c3cc4ccc5nc4n3CCCCCCc3nccnc3C(=O)N[C@@H]5C)n(C)c12 [Example 606, (2~{R})-18-[5-[(3~{S},4~ {R})-3-amino-4-methoxy-piperidine-1-carbonyl]-7-methoxy-1-methyl-benzimidazol-2-yl]-2-methyl-3,6,9,17,23-pentazatetracyclo[15.5.2.0^ {5,10}.0^{20,24}]tetracosa-1(23),5(10),6,8,18,20(24), 21-heptaen-4-one]
51 nM | COC1CC1n1c(-c2cc3ccc4nc3n2CCCCC[C@@H]2C[C@H]2C(=O)N[C@@H]4C)nc2cc(C(=O)N[C@H]3CNCC[C@@H]3F)c(F)cc21 (stereo partly drawn) [Example 607, 6-fluoro-~{N}-[(3~{S),4~ {S})-4-fluoro-3-piperidyl]-1-(2-methoxycyclopropyl)-2-[(2~{R},5~{R},7~{R})-2-methyl-4-oxo-3,13,19-triazatetracyclo[11.5.2.0^ {5,7}.0^{16,20}]icosa-1(18),14,16,19-tetraen-14-yl]benzimidazole-5-carboxamide]
115 nM | COc1cc(C(=O)N2CC[C@@H](OC)[C@@H](N)C2)cc2nc(-c3cc4ccc5nc4n3CC(F)(F)CCCCC(C)(C)C(=O)N[C@@H]5C)n(C)c12 [Example 608, (11~{R})-17-[5-[(3~{S}, 4~{R})-3-amino-4-methoxy-piperidine-1-carbonyl]-7-methoxy-1-methyl-benzimidazol-2-yl]-3,3-difluoro-8,8,11-trimethyl-1,10,19-triazatricyclo[10.5.2.0^ {15,18}]nonadeca-12,14,16,18-tetraen-9-one]
